# Results as given in patent publication US5523315A, “N-(hydroxyethyl)butanediamide derivatives” (Bio-Mega/Boehringer Ingelheim Research Inc., priority 1993, dated 1996).
# Target: T1, human renin (Homo sapiens, UniProt P00797)
# T1 construct: A human plasma pool is used as the source of both the substrate (angiotensinogen) and the enzyme (renin); from tissue; host or cells: pooled human plasma
# T1 sequence (P00797 67-406): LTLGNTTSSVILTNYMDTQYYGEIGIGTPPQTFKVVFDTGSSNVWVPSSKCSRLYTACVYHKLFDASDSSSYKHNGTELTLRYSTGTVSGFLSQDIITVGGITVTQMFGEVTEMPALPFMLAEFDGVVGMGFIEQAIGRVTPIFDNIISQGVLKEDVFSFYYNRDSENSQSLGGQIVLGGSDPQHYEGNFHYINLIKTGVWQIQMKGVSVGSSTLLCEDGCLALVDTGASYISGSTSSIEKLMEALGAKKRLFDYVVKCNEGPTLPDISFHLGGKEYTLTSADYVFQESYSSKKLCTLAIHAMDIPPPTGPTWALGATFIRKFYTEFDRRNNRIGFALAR
# Test: plasma renin assay (inhibition of human renin; angiotensin I generated, measured by radioimmunoassay)
# Format: biochemical
# Details: human plasma pool, pH 6.0, 2 h incubation at 37°
# In short: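 Pooled human plasma supplies both renin and angiotensinogen; inhibitor in MES/1% HSA buffer (1% DMSO final) incubated 2 h at 37° at pH 6.0. Angiotensin I generated quantified by radioimmunoassay, inhibition relative to no-inhibitor control, IC50 by nonlinear regression.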
row,Compound,IC50 [nM]
1,"CC(C)C[C@H](O)[C@H](O)[C@H](CC1CCCCC1)NC(=O)[C@@H](CC(=O)N(CC1CC1)CC1(O)CCCCC1)CC1CC1 [Compound 16, N^4-(cyclopropylmethyl)-N^4-[(1-hydroxycyclohexyl)methyl]-N^1-[1(S)-(cyclohexylmethyl)-2(R),3(S)-dihydroxy-5-methylhexyl]-2(R)-(cyclopropylmethyl)butanediamide]",89
2,"CC(C)C[C@H](O)[C@H](O)[C@H](CC1CCCCC1)NC(=O)[C@@H](CC(=O)N(Cc1ccccn1)CC1(O)CCC(=O)CC1)CC1CC1 [Compound 19, N^4-[(1-hydroxy-4-oxocyclohexyl)methyl]-N^4-(2-pyridinylmethyl)-N^1-[1(S)-(cyclohexylmethyl)-2(R),3(S)-dihydroxy-5-methylhexyl]-2(R)-(cyclopropylmethyl)butanediamide]",100
3,CC(C)C[C@H](O)[C@H](O)[C@H](CC1CCCCC1)NC(=O)[C@@H](CC(=O)N(Cc1ccncc1)CC1(O)CCCCC1)CC1CC1 [Compound 29],31
4,"CC(C)C[C@H](O)[C@H](O)[C@H](CC1CCCCC1)NC(=O)[C@@H](CC(=O)N(Cc1ccccc1)C[C@H](O)c1ccccc1)CC1CC1 [Compound 11, N^4-benzyl-N^4-(R)-(2-hydroxy-2-phenylethyl)-N^1-[1(S)-(cyclohexylmethyl)-2(R),3(S)-dihydroxy-5-methylhexyl]-2(R)-(cyclopropylmethyl)butanediamide]",110

# Stronger by IC50, values ahead:
row,IC50 [nM],Compound
1,2,"CC(C)C[C@H](O)[C@H](O)[C@H](CC1CCCCC1)NC(=O)[C@@H](CC(=O)N(CC(=O)N(C)CCc1ccccn1)CC1(O)CCCCC1)Cc1csc(N)n1 [Compound 49, N^4-[(1-hydroxycyclohexyl)methyl]-N^4 -{2-{methyl[2-(2-pyridinyl)ethyl]amino}-2-oxoethyl}-N^1-[1(S)-(cyclohexylmethyl)-2(R),3(S)-dihydroxy-5-methylhexyl]-2(R)-[(2-amino-4-thiazolyl)methyl]butanediamide]"
2,15,"CC(C)C[C@H](O)[C@H](O)[C@H](CC1CCCCC1)NC(=O)[C@@H](CC(=O)N(Cc1ccccc1)CC1(O)CCCCC1)Cc1cscn1 [Compound 27, N^4-benzyl-N^4-[ (1-hydroxycyclohexyl)methyl]-N^1-[1(S)-(cyclohexylmethyl)-2(R),3(S)-dihydroxy-5-methylhexyl]-2(R)-(4-thiazolylmethyl)butanediamide]"
3,1.5,"CC(C)C[C@H](O)[C@H](O)[C@H](CC1CCCCC1)NC(=O)[C@@H](CC(=O)N(CC(=O)N(C)CCc1ccccn1)CC1(O)CCCCCC1)Cc1csc(N)n1 [Compound 59, N^4-[(1-hydroxycycloheptyl)methyl]-N^4 -{2-{methyl[2-(2-pyridinyl)ethyl]amino}-2-oxoethyl}-N^1-[1(S)-(cyclohexylmethyl)-2(R),3(S)-dihydroxy-5-methylhexyl]-2(R)-[(2-amino-4-thiazolyl)methyl]butanediamide]"
4,21,"CC(C)C[C@H](O)[C@H](O)[C@H](CC1CCCCC1)NC(=O)[C@@H](CC(=O)N(Cc1ccc2c(c1)OCO2)CC1(O)CCCCC1)CC1CC1 [Compound 3, N^4-[(1-hydroxycyclohexyl)methyl]-N^4-[(4,5-methylenedioxyphenyl)methyl]-N^1-[1(S)-(cyclohexylmethyl)-2(R),3(S)-dihydroxy-5-methylhexyl]-2(R)-(cyclopropylmethyl)butanediamide]"
